{"source": "paper PMC12736008", "about": "“New Dimethylpyridine-3-Carboxamide Derivatives as MMP-13 Inhibitors with Anticancer Activity” (Molecules, 2025)", "biological_target": "T1, MMP-13 (Homo sapiens, UniProt P45452)", "T1 construct": "purchased Abcam ab139451", "assay": "MMP-13 inhibitor screening assay kit (fluorometric)", "assay_type": "biochemical", "conditions": "single-point screening; tested compounds 1.8 to 4.6 µM", "protocol": "The inhibitory activity of the designed compounds against MMP-13 was evaluated using a commercial fluorometric MMP-13 inhibitor assay kit (Abcam, Cambridge, UK), following the manufacturer’s protocol. Solutions of the tested compounds were prepared at concentrations ranging from 1.8 to 4.6 µM. N-isobutyl-N-(4-methoxyphenylsulfonyl)glycyl hydroxamic acid (NNGH), a broad-spectrum inhibitor of matrix metalloproteinases, was used as positive control. […] In parallel, MMP-8 inhibition assays were also conducted using the same concentrations of compounds 3b, 3c, 3d, and 3g.\nIt should be emphasized that these assays were performed as single-point screening experiments, optimized for rapid qualitative assessment rather than full kinetic characterization. Consequently, the observed differences in activity between MMP-13 and MMP-8 are indicative trends supporting the selectivity predicted by computational studies, including docking, molecular dynamics simulations, and binding free energy calculations, rather than providing definitive quantitative evidence.\nThe inhibitory activity of the tested compounds was evaluated using the MMP-13 inhibitor screening assay kit (fluorometric) (Abcam, ab139451). The assay performed according to the manufacturer’s instructions. The designed compounds were tested at concentrations ranging from 1.8 to 4.6 µM, to determine their inhibitory activity. […]"}
{"smiles": "COc1ccc(S(=O)(=O)N(CC(=O)NO)CC(C)C)cc1", "note": "[NNGH, N-isobutyl-N-(4-methoxyphenylsulfonyl)glycyl hydroxamic acid, reference compound]", "values": [{"measurement": "MMP-13 activity inhibition", "result": "~97", "unit": "%"}]}
